“Also recorded” adds a separate entry of the source. No end group written: not given here.
Legend:
[1] = test system: HCT116 cells; experiment: Glutamine competition experiment (FITC-P-LPK uptake); assay type: cell-based, human; conditions: 0–32 mM glutamine, 37 °C, 2 h
Experimental: Then these cells were washed with ice-cold PBS three times gently, suspended in PBS and transferred to a 96-well costar plate. The fluorescence intensity was measured in a multi-well plate reader (BioTek synergy4).

[2] = in vivo; set-up: species or system human xenograft in BALB/c nude mice; conditions: female, BALB/c nude, mouse, iv, 3.7 MBq, total radioactivity, T/NT ratio
Experimental: (§1) To obtain ^68Ga, 0.1 M HCl was used to elute a ^68Ge-^68Ga generator. The radioactivity of eluate was monitored. The radioactive elution peak was collected for ^68Ga radiolabeling experiment. An aliquot of 150 μg of compound P-LPK or P-CON was put in a glass vial and dissolved with 0.2 M sodium acetate/acetic acid buffer, pH 3.8. Then ^68GaCl3 tracer was added, and the pH was adjusted to fall in a range of 3.5~4 with 0.1 M NaOH. The solution was stored at room temperature for 0.5 h. The radiochemical purities of ^68Ga-P-LPK and ^68Ga-P-CON were measured with thin-layer chromatography (TLC), using silica gel-impregnated glass fiber stripe (iTLC SG) and 0.25 M sodium citrate/citric acid buffer as mobile phase. ^68GaCl3 was used as a control.
(§2) Each U87 and HCT116 tumor-bearing mouse was injected in a tail vein with 3.7 MBq (100 μCi, 0.1 nmol in 100 μl) of ^68Ga-P-LPK or ^68Ga-P-CON under isoflurane anesthesia (n = 4 per group). For static PET, 5-min scans were acquired at 30 min, 60 min, and 120 min after injection. The maximum radioactivity concentrations within a tumor or an organ were obtained from mean pixel values within the multiple regions of interest (ROI) volume.
For the blocking experiment, unlabeled P-LPK was first injected into mice (n = 3 per group), and 3.7 MBq ^68Ga-P-LPK was then injected. Static PET images were acquired at 30 min, 60 min and 120 min post-injection.

[3] = test system: U87 tumors; experiment: in vivo; set-up: species or system human xenograft in BALB/c nude mice; conditions: female, BALB/c nude, mouse, iv, 3.7 MBq, 2 h
Experimental: as §1, §2

[4] = in vivo; set-up: species or system human xenograft in BALB/c nude mice; conditions: female, BALB/c nude, mouse, iv, 3.7 MBq, total radioactivity, T/NT ratio; remark: listed apart in the source
Experimental: as §1, §2

[5] = test system: Plasminogen activator inhibitor 1 precursor (PAI1); conditions: MDA-MB-231, bioinformatics analysis; cited from earlier work
From the text: (§3) The specific binding mechanisms of a peptide to a cell is presumably by its binding to a given receptor expressed at the cell membrane.

[6] = test system: human CRC cell lines; conditions: earlier phage display study; cited from earlier work
From the text: The phage display technique is a powerful tool to identify novel targeting peptides in researches and clinics[10]–[12]. By screening whole cells, it is able to identify short peptides that interact with cell surface molecules.

[7] = test system: CRC cells; conditions: conjugated to CPT
[8] = test system: SLC1A5 in HCT116 cells; experiment: FITC-P-LPK binding after SLC1A5 knockdown; assay type: cell-based, human; conditions: si-SLC1A5, 48 h
Experimental: (§4) Fig. 6 P-LPK bound to SLC1A5 and entered CRC cells through endocytosis. a, b Western blotting analysis of SLC1A5 in NCM460, HCT116, LoVo, SW480, HT29 and Colo320HSR cells. After knocking down SLC1A5 in HCT116 and HT29, the binding intensity of FITC-P-LPK to cells was observed by confocal microscopy. Bar, 10 μm. c, d Effects of different endocytosis inhibitors on the internalization of FITC-P-LPK. HCT116 cells were pre-treated with 10 µM chlorpromazine, 50 μM methyl-β-cyclodextrin, 20 µM Amiloride hydrochloride for 30 min at 37 °C. Subsequently, the cells were incubated with FITC-P-LPK for 2 h. Then the fluorescence intensity was observed by confocal microscopy and detected using a multi-well plate reader (n = 5, means ± SD, NC vs CPZ, p = 0.0001; NC vs MβCD, p = 0.9069; NC vs EIPA, p = 0.9812) (****p < 0.0001). Bar, 10 μm. e The competition experiment with SLC1A5 substrates glutamine. FITC-P-LPK was incubated with increasing concentrations (0–32 mM) of glutamine in HCT116 cells at 37 °C for 2 h. The fluorescence intensity was measured in a multi-well plate reader (n = 5, means ± SD). […]
(§5) Primary antibodies against SLC1A5 (Abcam,  Cat No. ab237704,1:1000) and secondary antibodies labeled with HRP (YEASEN, 33701ES60, China,1:5000) was applied. Signals were detected using ECL Kit (Pierce Biotech, Rockford, IL). β-Actin (Sigma,USA, A5441) was performed as an internal control.

[9] = test system: SLC1A5 in HT29 cells; experiment: FITC-P-LPK binding after SLC1A5 knockdown; assay type: cell-based, human; conditions: si-SLC1A5, 48 h
Experimental: as §4, §5

[10] = test system: human CRC cell lines; experiment: Peptide binding to a panel of human CRC cell lines; assay type: cell-based; conditions: confocal imaging, in contrast to NCM460; FITC-labeled
Experimental: NCM460, Colo320HSR, HCT116, LoVo, HT29 and SW480 cells were respectively incubated with FITC-labeled P-LPK (Random peptide P-CON) peptides for 2 h at 37 °C and washed with PBS for three times. The cells were fixed with 4% paraformaldehyde for 30 min at room temperature, and then 4,6-diamidino-2-phenylindole (DAPI) was used for nucleic acid stain. A laser scanning confocal microscope was used to visualize the cells. The fluorescence intensity was analyzed using the Image-Pro Plus 6.0 software. For cell localization experiment, 20 μg/ml rhodamine-labeled peptides were incubated with NCM460 and HCT116 for 2 h, and then washed with PBS for three times. After that, the cell membrane was stained with a blue cell membrane probe (Thermo Fisher Scientific, Cat. No. W11263). The binding of Rhodamine-P-LPK to cells and their localization in cells was observed under a confocal microscope.

[11] = test system: α-2-macroglobulin; conditions: androgen-independent prostate cancer cells; cited from earlier work
From the text: as §3

[12] = test system: Metalloproteinase Inhibitor 1 (TIMP-1); conditions: MDA-MB-231, bioinformatics analysis; cited from earlier work
From the text: as §3

[13] = test system: 78 kDa glucose-regulated protein; conditions: androgen-independent prostate cancer cells; cited from earlier work
From the text: as §3

Compound: NC(=O)CC[C@H](N)C(=O)O [glutamine]
- Effect on uptake of FITC-P-LPK [1]: does not affect the uptake of P-LPK

Compound: DLPSRTSALASG [68Ga-P-CON, metal not drawn]
- tissue to tissue ratio at 0.5 h [2]: 1.58
- tissue to tissue ratio at 1 h [2]: 1.49
- tissue to tissue ratio at 2 h [2]: 1.37
- T/NT ratio [3]: 1.28
- tissue to tissue ratio at 0.5 h [4]: 1.75
- tissue to tissue ratio at 1 h [4]: 1.56
- tissue to tissue ratio at 2 h [4]: 1.33

Compound: DTFNSFGRVRIE [peptide targeting MDA-MB-231]
- Targeting [5]: specifically targeted

Compound: DWSSWVYRDPQT [CBP-DWS]
- Binding to CRC cells [6]: selectively bound to CRC cells
- Improvement of CPT killing when used as targeting vector [7]: did not improve the targeted killing ability

Compound: FITC-P-LPK (LPKTVSSDMSLN; also: FITC label, position not given here)
- Fluorescence after SLC1A5 knockdown [8]: reduction of the fluorescence
- Fluorescence after SLC1A5 knockdown [9]: reduction of the fluorescence
- FITC-peptide binding to CRC cells [10]: stronger green fluorescence in CRC cells than normal NCM460 cells; also recorded: abundant binding capacity to human CRC cell lines

Compound: PKRGFQD [peptide targeting androgen-independent prostate cancer cells]
- Binding [11]: bind specifically to α-2-macroglobulin

Compound: PRWAVSP [peptide targeting MDA-MB-231]
- Targeting [12]: specifically targeted Metalloproteinase Inhibitor 1 (TIMP-1)

Compound: SNTRVAP [peptide targeting androgen-independent prostate cancer cells]
- Binding [13]: bind specifically
